In US20080153853A1, “USE OF MTKI 1 FOR TREATING OR PREVENTING BRAIN CANCER” (priority 2006, published 2008):

Tests used:
[1] = test system: A431 vulval carcinoma cells (s.c. tumor); assay: Subcutaneous injection of A431 cells in rats: s.c. tumor growth; type: in vivo, rat; conditions: for Effect on subcutaneous A431 tumor growth (median s.c. tumor volumes, FIG. 1): MTKI 1 p.o. at all doses tested (50, 75, 100 mpk), BCNU i.v. day 4 and day 18; for Treatment versus Control (taking control as 100%), median s.c. A431 tumor volume: day 18, 24 hr after last treatment
Protocol: A431 (ATCC, Rockville, Md. USA) vulval carcinoma cells were stereo-tactically injected into athymic nude rats and mice. Tumor growth delay was followed by using animal survival as readout in the rat study or using MRI imaging in the case of the mouse study. Subcutaneous Injection of Cells in Rats The same day of the stereotaxic injection, rats were injected subcutaneously with A431 cells at D0. The tumor was obtained in rats by subcutaneous (SC) injection of 1×10^7 A431 cells in RPMI medium (200 μl) in their right flank. For subcutaneous injection of tumor cells, rats were anesthetised by inhalation of Isoflurane Forene (Minerve, Bondoufle, France). MTKI 1 (Compound 1 in the figures hereinafter) was dissolved in a solution of 20% Hydroxypropyl-β-cyclodextrine (20% β-HP-Cyclodextrin, pH 4.0) and given by oral gavage, daily for a period of fourteen days starting four days post inoculation of the cells, i.e. from day 4-17. Vehicle treated animals only received the β-HP-Cyclodextrin solution. The reference compound BCNU (Carmustin) was dosed intravenously on day 4 and day 18.

[2] = Clinical signs of toxicity (body weight loss, behavioral changes) in treated tumor-bearing rats; conditions: high dose 15 mpk i.v. day 4 and day 18
Protocol: (§1) MTKI 1 (Compound 1 in the figures hereinafter) was dissolved in a solution of 20% Hydroxypropyl-β-cyclodextrine (20% β-HP-Cyclodextrin, pH 4.0) and given by oral gavage, daily for a period of fourteen days starting four days post inoculation of the cells, i.e. from day 4-17. Vehicle treated animals only received the β-HP-Cyclodextrin solution.
(§2) The reference compound BCNU (Carmustin) was dosed intravenously on day 4 and day 18.

[3] = test system: A431 vulval carcinoma cells (intracranial tumor); assay: Stereotaxic injection of A431 cells in the brain of rats: animal survival; type: in vivo, rat; conditions: rats with intracranial and s.c. A431 tumors, vehicle 49
Text: A431 (ATCC, Rockville, Md. USA) vulval carcinoma cells were stereo-tactically injected into athymic nude rats and mice. Tumor growth delay was followed by using animal survival as readout in the rat study or using MRI imaging in the case of the mouse study.
Stereotaxic Injection of Cells in the Brain of Rats
Forty (40) rats (Wistar, BDIX or Sprague Dawley) in part I and 40 nude rats were sterotaxically injected with cells at D0. For stereotaxic injection of tumor cells, rats were anesthetised by an intramuscular injection of a Ketamine (Ketamine500®, Ref 043KET204, Centravet, France) and Xylazine (Rompun®, Ref 002ROM001, Centravet, France) mixture (2/1, v/v, 70 and 15 mg/kg, respectively). 1×10^5 A431 Cells were stereotaxically injected using 4 independant stereotaxic apparatus (Kopf Instrument, Germany and Stoelting Company, USA) in the right frontal lobe with 1×10^5 tumor cells re-suspended in 5 μl of RPMI medium. Five μl of the cell suspension was injected according to SOP No TEC-083/001 at 0.5 μl/min. After cells injection, rats were observed during 1 hour.
as §1, §2

| SMILES | Effect on subcutaneous A431 tumor growth (median s.c. tumor volumes, FIG. 1) [1] | Clinical signs of toxicity, i.e. body weight loss [2] | Treatment versus Control (taking control as 100%), median s.c. A431 tumor volume ([1]; 50 mpk p.o. QDx14 (day 4-17)) [%] | Treatment versus Control (taking control as 100%), median s.c. A431 tumor volume ([1]; 75 mpk p.o. QDx14 (day 4-17)) [%] | Treatment versus Control (taking control as 100%), median s.c. A431 tumor volume ([1]; 100 mpk p.o. QDx14 (day 4-17)) [%] | Survival times (50%) ([3]; 50 mpk p.o. daily day 4-17) [days] | Survival times (50%) ([3]; 75 mpk p.o. daily day 4-17) [days] | Survival times (50%) ([3]; 100 mpk p.o. daily day 4-17) [days] |
| --- | --- | --- | --- | --- | --- | --- | --- | --- |
| O=NN(CCCl)C(=O)NCCCl [BCNU, reference compound] | no effect | may have induced some mild toxicity |  |  |  |  |  |  |
| COc1cc2ncnc3c2cc1OCCCCCN(C)Cc1ccc(Br)cc1N3 [MTKI 1, 4,6-ethanediylidenepyrimido[4,5-b][6,1,12]benzoxadiazacyclo-pentadecine, 17-bromo-8,9,10,11,12,13,14,19-octahydro-20-methoxy-13-methyl] | clearly inhibited |  | 5.37 | 4.29 | 3.17 | 61 | 83 | 88 |
